Results published in publication PMC6162693, “Investigation into the Thermal Response and Pharmacological Activity of Substituted Schiff Bases on α-Amylase and α-Glucosidase” (Antioxidants, 2018).
In brackets after ≈: the same amount, converted by molar mass. Like-named read-outs stand apart in the source and are kept apart here.

Legend:
[1] = DPPH radical scavenging activity; conditions: absorbance at 517 nm, 30 min; mean ± SD (n = 3)
Protocol: (§1) The antioxidant activities of Schiff bases (1–9) were determined by DPPH, ABTS^+, H2O2, ferric reducing power assays, and compared with 3,4,5-trihydroxybenzoic acid (10), 5-(1,2-dihydroxyethyl)-3,4-dihydroxyfuran-2(5H)-one (11), and 2-(3,4-dihydroxyphenyl)-3,5,7-trihydroxy-4H-chromen-4-one (12) (as controls).
The scavenging activity of compounds (1–12) was evaluated by adding an ethanolic solution of DPPH (300 μL, 0.05 mM) and incubated for 30 min in the dark. After that, changes in the absorbance of the mixture were measured at 517 nm on a UV-Vis spectrophotometer. The percentage radical scavenging activities (%RSA) and half maximal inhibitory concentration (IC50) of the compounds were estimated from Equation (2) and by linear regression analysis, respectively. All studies were carried out in triplicate. (2) % RSA= 100⌊(Abs. of DPPH − Abs. of test compound)/(Abs. of DPPH)⌋

[2] = ABTS radical cation decolourisation assay; conditions: absorbance at 734 nm, 30 min; mean ± SD (n = 3)
Protocol: as §1
A mixture of ABTS (960.2 mg) and potassium persulphate (165.6 mg) was dissolved in 250 mL of distilled water to generate the blue-green ABTS^+ solution. The ABTS solution was stored away in the dark at ambient temperature for 24 h to generate sufficient ABTS radical cation (ABTS^+), then the absorbance was adjusted to 0.9547 with distilled water. Precisely 40 µL solution of the compounds were added to 3 mL ABTS^+ solution and incubated at 298 K for 30 min in the dark. Changes in concentration of ABTS^+ were measured at 734 nm on a spectrophotometer. The degree of ABTS^+ decolourisation was a template for evaluating the percentage proton-donating potential (%PDP) of the test compounds [24]; estimated from Equation (3). The IC50 (μM) of the compounds were determined by linear regression analysis, and all analyses were carried out in triplicate. (3) % PDP = 100⌊(Abs. of ABTS ^+ − Abs. of test compound)/(Abs. of ABTS^+)⌋

H2O2-scavenging activity = conditions: absorbance at 230 nm; mean ± SD (n = 3)
Protocol: as §1
According to the methods of Ruch et al., the H2O2 scavenging activity of compounds (1–12) was evaluated. To 100 µL aliquot of the test compounds was added 0.4 mL of 50 mM phosphate buffer followed by 0.6 mL of 2 mM H2O2 solution prepared in 50 mM phosphate buffer (pH 6.8). The absorbance of the mixture was measured at 230 nm, thereafter, the %H2O2 scavenging activity (Equation (4)) and IC50 (μM) of the compounds 1–12 was determined. All analyses were carried out in triplicate. (4) % H2O2 − scavenging activity = 100⌊(Abs. of H2O2 − Abs. of test compound)/(Abs. of H2O2)⌋

Staphylococcus aureus = experiment: Broth microdilution antimicrobial assay, S. aureus; assay type: cell-based; conditions: Staphylococcus aureus, read-out: MBC S. aureus
Protocol: (§2) Exactly 1.5 mg of sodium;10-oxido-7-oxophenoxazin-10-ium-3-olate was dissolved in 100 mL of distilled water, vortexed, filtered, sterilised, and stored at 4 °C for a maximum of 14 days before being applied as a growth indicator. 1000 μM stock solution of Schiff bases (1–9) was prepared in DMSO.
(§3) Fungi (Aspergillus niger, Candida albicans), Gram-positive bacteria (Staphylococcus aureus, Enterococcus faecalis), and Gram-negative bacteria (Salmonella typhi, Escherichia coli).
(§4) Colonies from a 24 h culture agar plate were collected with a loop and transferred to a tube containing lysogeny broth (LB). The various suspensions were incubated at 37 °C and the size adjusted to 1.5 × 10^6 CFU/mL [27].
(§5) The antimicrobial activity of Schiff bases (1–9), was evaluated using 96-well broth microdilution method as described by de Rapper et al. (2013) and Akhalwaya et al. (2018) with slight modifications. Columns 1–11 was filled 50 µL LB, followed by the addition of 50 µL of Schiff base to column 1. Thereafter, 50 µL of Schiff bases from column 1 was transferred by multichannel pipette to columns 2–10, resulting in 50 µL Schiff bases per well. Column 11 contained 100 µL of diluted standardised inoculum, while Column 12 contained 100 µL of LB as a control to monitor sterility. Then, 50 µL of the microorganism suspension was then added to columns 1–10 and the control column 11. The plates were incubated at 37 °C for 24 h, followed by the addition of 30 µL of growth indicator solution and further incubated for 2 h for the observation of colour change. On completion of incubation, the columns with blue indicator colour were reported as the MIC (µM) values. The columns with a concentration higher than the MIC value were plated on nutrient agar to determine the minimum bactericidal and fungicidal concentrations.

Enterococcus faecalis = experiment: Broth microdilution antimicrobial assay, E. faecalis; assay type: cell-based; conditions: Enterococcus faecalis, read-out: MBC E. faecalis
Protocol: as §2, §3, §4, §5

Escherichia coli = experiment: Broth microdilution antimicrobial assay, E. coli; assay type: cell-based; conditions: Escherichia coli, read-out: MBC E. coli
Protocol: as §2, §3, §4, §5

Salmonella typhi = experiment: Broth microdilution antimicrobial assay, S. typhi; assay type: cell-based; conditions: for MBC: Salmonella enterica, TYPHI, read-out: MBC S. typhi
Protocol: as §2, §3, §4, §5

Aspergillus niger = experiment: Broth microdilution antimicrobial assay, A. niger; assay type: cell-based
Protocol: as §2, §3, §4, §5

Candida albicans = experiment: Broth microdilution antimicrobial assay, C. albicans; assay type: cell-based
Protocol: as §2, §3, §4, §5

α-glucosidase = experiment: α-Glucosidase inhibitory activity; assay type: biochemical; conditions: Means ×10^2 ± SD from at least three experiments
Protocol: The inhibitory activity of Schiff bases (1-9) against α-glucosidase was assessed by the method previously described by […] et al. […] Then, approximately 0.2 mL of Schiff base solution was mixed with 1.0 mL of 50 mM sodium phosphate buffer (pH 6.9) and 50 μL of α-glucosidase solution (2 U/mL). Thereafter, incubated at 37 °C for 10 min, followed by the addition of exactly 50 μL of 0.7 mM p-nitrophenyl-α-D-glucopyranoside solution in 50 mM sodium phosphate buffer (pH 6.9) and further incubated for 30 min at 37 °C. The reaction was terminated by the addition of 2.0 mL solution of 0.5 M Na2CO3. 0.3 mL aliquot of the above mixture was mixed with 4.7 mL of distilled water and the absorbance measured at 405 nm. […] (6) α - glucosidase inhibition (%) = (Ae - ASB/Ae)100 where Ae is the absorbance of the enzyme solution after incubation and ASB is the absorbance after incubation of Schiff bases solution. The assay was performed in triplicate.

α-amylase = experiment: α-Amylase inhibitory activity; assay type: biochemical; conditions: Means ×10^2 ± SD from at least three experiments
Protocol: The α-amylase inhibitory activity of Schiff bases (1–9) was evaluated by the method reported by Xiao et al. with slight modifications. Substrate solution is prepared by dissolving 1.0 g of starch in 50 mL of 0.4 M NaOH and heated at 100 °C for 5 min. The substrate solution was adjusted to a neutral pH by the addition of 0.1 M HCl, cooled on crushed ice and made to 100 mL in a standard volumetric flask with distilled water. […] Using a microplate, 40 μL substrate and 20 μL Schiff base solution were mixed, then preincubated at 37 °C for 3 min. Thereafter, 20 μL of 50 μg/mL α-amylase solution was dispensed into each well, and further incubated for 15 min. The reaction was terminated by the addition of 80 μL HCl (0.1 M); followed by 200 μL of 1 mM iodine solution, and the absorbances measured at 650 nm. Inhibitory activity was calculated from Equation (5):(5) α − amylase inhibition (%) = (A2 − A1/A4 − A3)100 where A1 is the absorbance of Schiff base, starch, and α-amylase solution after incubation, A2 is the absorbance of Schiff base and starch solution after incubation, A3 is the absorbance of starch and amylase solution after incubation, and A4 is the absorbance of a starch solution after incubation. Thereafter, the IC50 value was determined from the plot of % inhibition versus concentration.

[3] = test system: Fungi (Aspergillus niger, Candida albicans); experiment: Broth microdilution MIC, antifungal (fungus not specified); assay type: cell-based; conditions: read-out: MIC (antifungal)
Protocol: as §2, §3, §4
The antimicrobial activity of Schiff bases (1–9), was evaluated using 96-well broth microdilution method as described by de Rapper et al. (2013) and Akhalwaya et al. (2018) with slight modifications. Columns 1–11 was filled 50 µL LB, followed by the addition of 50 µL of Schiff base to column 1. Thereafter, 50 µL of Schiff bases from column 1 was transferred by multichannel pipette to columns 2–10, resulting in 50 µL Schiff bases per well. Column 11 contained 100 µL of diluted standardised inoculum, while Column 12 contained 100 µL of LB as a control to monitor sterility. Then, 50 µL of the microorganism suspension was then added to columns 1–10 and the control column 11. […]

| SMILES | IC50 [1] | IC50 [2] | IC50 (H2O2-scavenging activity) | MBC (Staphylococcus aureus) | MBC (Enterococcus faecalis) | MBC (Escherichia coli) | MBC (Salmonella typhi) | MFC (Aspergillus niger; read-out: MFC A. niger) | MFC (Candida albicans; read-out: MFC C. albicans) | IC50 (α-glucosidase) | IC50 (α-amylase) | melting point | further results |
| --- | --- | --- | --- | --- | --- | --- | --- | --- | --- | --- | --- | --- | --- |
| Oc1cc(N=Cc2ccccc2O)n[nH]1 [Compound 2, 3-(((2-hydroxyphenyl)methylidene)amino)-1H-pyrazol-5-ol] | 390 ± 5 µM | 510 ± 5 µM | 410 ± 6 µM | 4.31 µM (≈ 0.876 µg/mL) | > 4.31 µM | 4.31 µM (≈ 0.876 µg/mL) | > 4.31 µM | > 4.31 µM | > 4.31 µM | 120 ± 51 µM | 91 ± 9 µM | 370 °C |  |
| Oc1cc(N=Cc2ccccc2)n[nH]1 [Compound 3, 3-((phenylmethylidene)amino)-1H-pyrazol-5-ol] | 360 ± 5 µM | 450 ± 7 µM | 410 ± 8 µM | > 5.35 µM | > 5.35 µM | 2.67 µM (≈ 0.5 µg/mL) | > 5.35 µM | > 5.35 µM | > 5.35 µM | 560 ± 82 µM | 200 ± 74 µM | 266 °C | MIC [3]: 0.67 µM (≈ 0.125 µg/mL) |
| O=[N+]([O-])c1ccc(C=Nc2ccc(O)cc2)cc1 [Compound 4, 4-(((4-nitrophenyl)methylidene)amino)phenol] | 290 ± 6 µM | 370 ± 6 µM | 370 ± 7 µM |  |  | 2.07 µM (≈ 0.501 µg/mL) |  |  |  | 1390 ± 91 µM | 1380 ± 17 µM | 202 °C | MBC (Staphylococcus aureus; 24 h, * = no bactericidal effect at the evaluated concentration, n = 3): 4.31 µM (≈ 1.04 µg/mL); MBC (Enterococcus faecalis; 24 h): > 4.31 µM; MBC (Salmonella typhi; 24 h): > 4.31 µM; MFC (Aspergillus niger; 24 h, read-out: MFC A. niger): > 4.31 µM; MFC (Candida albicans; 24 h, read-out: MFC C. albicans): > 4.31 µM |
| Oc1ccc(N=Cc2ccccc2O)cc1 [Compound 5, 4-(2-hydroxybenzylideneamino)phenol] | 260 ± 5 µM | 110 ± 5 µM | 320 ± 6 µM | > 4.69 µM |  |  | > 4.69 µM | > 4.69 µM | > 4.69 µM | 1380 ± 1250 µM |  |  | MBC (Enterococcus faecalis; * = no bactericidal effect at the evaluated concentration, n = 3): 4.69 µM (≈ 1 µg/mL); MBC (Escherichia coli; n = 3): 4.69 µM (≈ 1 µg/mL) |
| Oc1ccc(N=Cc2ccccc2)cc1 [Compound 6, 4-(benzylideneamino)phenol] | 380 ± 2 µM | 260 ± 6 µM | 380 ± 5 µM | > 5.07 µM | > 5.07 µM |  | > 5.07 µM | > 5.07 µM | > 5.07 µM | 1420 ± 1730 µM | 1410 ± 17 µM | 302 °C | MBC (Escherichia coli; n = 3): 2.54 µM (≈ 0.501 µg/mL) |
| O=S(=O)(O)c1cc(O)c(N=Cc2ccccc2O)c2ccccc12 [Compound 8, 4-(2-hydroxybenzylideneamino)-3-hydroxynaphthalene-1-sulphonic acid] | 210 ± 5 µM | 140 ± 5 µM | 240 ± 17 µM | > 2.92 µM | > 2.92 µM | 1.46 µM (≈ 0.501 µg/mL) | > 2.92 µM | 1.46 µM (≈ 0.501 µg/mL) | 1.46 µM (≈ 0.501 µg/mL) | 500 ± 82 µM | 420 ± 34 µM | 296 °C | antibacterial activity (growth inhibition), S. typhi (Salmonella typhi): inhibited only the growth of S. typhi |
| O=S(=O)(O)c1cc(O)c(N=Cc2ccccc2)c2ccccc12 [Compound 9, 4-(benzylideneamino)-3-hydroxynaphthalene-1-sulphonic acid] | 220 ± 6 µM | 50 ± 4 µM | 190 ± 11 µM | > 3.06 µM | > 3.06 µM | 3.06 µM (≈ 1 µg/mL) | > 3.06 µM |  |  | 660 ± 97 µM | 561 ± 42 µM | 246 °C | MFC (Aspergillus niger; * = no fungicidal effect at the evaluated concentration, n = 3, read-out: MFC A. niger): 1.53 µM (≈ 0.501 µg/mL); MFC (Candida albicans; * = no fungicidal effect at the evaluated concentration, n = 3, read-out: MFC C. albicans): 1.53 µM (≈ 0.501 µg/mL) |
| O=C(O)c1cc(O)c(O)c(O)c1 [Compound 10, 3,4,5-trihydroxybenzoic acid, reference compound] | 420 ± 3 µM | 580 ± 7 µM | 460 ± 11 µM |  |  |  |  |  |  |  |  |  |  |
| O=C1OC(C(O)CO)C(O)=C1O (stereo not drawn) [Compound 11, 5-(1,2-dihydroxyethyl)-3,4-dihydroxyfuran-2(5H)-one, reference compound] | 350 ± 5 µM | 530 ± 6 µM | 440 ± 7 µM |  |  |  |  |  |  |  |  |  |  |
| O=c1c(O)c(-c2ccc(O)c(O)c2)oc2cc(O)cc(O)c12 [Compound 12, 2-(3,4-dihydroxyphenyl)-3,5,7-trihydroxy-4H-chromen-4-one, reference compound] | 240 ± 3 µM | 270 ± 8 µM | 270 ± 10 µM |  |  |  |  |  |  |  |  |  |  |
